According to PMC2784108 (Bioorganic & medicinal chemistry, 2009):

Legend:
[1] = target: HDM2(11–119) (Homo sapiens, UniProt Q00987); experiment: Fluorescence anisotropy competition, HDM2 binding to fluorescein-labeled p53
[2] = target: T1, GST-HDMX(1–188) (Homo sapiens, UniProt O15151); experiment: Fluorescence anisotropy competition, HDMX binding to fluorescein-labeled p53
T1 sequence (O15151 1-188): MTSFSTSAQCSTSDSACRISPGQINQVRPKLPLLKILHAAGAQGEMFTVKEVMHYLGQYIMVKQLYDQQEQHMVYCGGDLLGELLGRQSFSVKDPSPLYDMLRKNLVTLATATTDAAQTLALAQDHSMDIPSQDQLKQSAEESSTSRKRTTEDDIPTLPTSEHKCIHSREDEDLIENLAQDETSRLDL

[3] = bromine at position Y replaced with methyl, compared with NAPA 9
[4] = compared with derivative with hydrogen at position Y (NAPA 5)

Structure (SMILES) | inhibition of HDM2-p53 binding (in words) [1] | inhibition of HDMX-p53 binding (in words) [2] | also measured
Cc1ccc(CCCNC(=O)N(CCC(N)=O)CC(CCC(=O)O)N(CC(CCCCN)N(CC(CCC(=O)O)NC(N)=O)C(=O)NCCCC(C)C)C(=O)NCCc2ccc(Br)cc2)cc1 (stereo not drawn) [NAPA 10] |  |  | activity against HDM2 relative to NAPA 9 [1, 3]: decreased by three times; inhibitory activity towards HDMX relative to NAPA 9 [2, 3]: did not significantly affect
CC(C)CCCCNC(=O)N(CC(CCC(=O)O)NC(N)=O)C(CCCCN)CN(C(=O)NCCc1ccc(Br)cc1)C(CCC(=O)O)CN(CCC(N)=O)C(=O)NCCCc1ccc(Br)cc1 (stereo not drawn) [NAPA 13] | modest inhibition | modest inhibition | 
CC(C)CCCNC(=O)N(CC(CCC(=O)O)NC(N)=O)C(CCCCN)CN(C(=O)NCCc1ccc(Br)cc1)C(CCC(=O)O)CN(CCC(N)=O)C(=O)NCCCc1ccc(Br)cc1 (stereo not drawn) [NAPA 9] |  |  | inhibition of HDM2 binding with p53 relative to NAPA 5 [1, 4]: two to four times better; inhibition of HDMX binding with p53 relative to NAPA 5 [2, 4]: two to four times better

Second part, led by results:

inhibition of HDM2-p53 binding (in words) [1] | inhibition of HDMX-p53 binding (in words) [2] | Structure (SMILES) | also measured
no inhibitory activity | no inhibitory activity | CC(C)CCC(=O)NC(CCC(=O)O)CN(CCC1CCC2(CCCCC2)CC1)C(CCCCN)CN(CCCCc1ccc(Br)cc1)[C@@H](CCC(=O)O)CN(CCCCCc1ccc(F)cc1)CCC(N)=O (stereo partly drawn) [NAPA 36] | 
negative impact on inhibitory activity | negative impact on inhibitory activity | CC(C)CCC(=O)N[C@@H](CCCC(=O)O)CN(C(=O)NCCCC1CCCCC1)[C@@H](CCCCN)CN(C(=O)NCCc1ccc(Br)cc1)[C@@H](CCCC(=O)O)CN(CCC(N)=O)C(=O)NCCCc1ccc(F)cc1 [NAPA 34] | 
eliminated all inhibitory activity | eliminated all inhibitory activity | NCCCC[C@@H](CN(C(=O)NCCCC1CCCCC1)[C@@H](CCCCN)CN(C(=O)NCCc1ccc(Br)cc1)[C@@H](CCCCN)CN(CCC(N)=O)C(=O)NCCCc1ccc(F)cc1)NC(N)=O [NAPA 35] | 
